From patent US4740233A, “Substituted 1,2,4-triazolo[1,5-a]-pyrimidine-2-sulfonamides and compositions and methods of controlling undesired vegetation and suppressing the nitrification of ammonium nitrogen in soil” (The Dow Chemical Company, priority 1986, dated 1988)

Experiments:
cotton = experiment: Preemergent control of plant species; format: in vivo, Gossypium spp.; conditions: Gossypium hirsutum, pre-emergence, 336 h; 0.25 lb/acre; read-out: percent preemergent control
How it was run: (§1)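 Preemergent application of aqueous emulsions at rates given in the table, uniformly over seeded greenhouse soil. Untreated (water) beds as comparison; rating after 2 weeks as reduction in growth.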

rape = experiment: Preemergent control of plant species; format: in vivo, Brassica napus; conditions: Brassica napus, pre-emergence, 336 h; 0.25 lb/acre; read-out: percent preemergent control
How it was run: as §1

soybean = experiment: Preemergent control of plant species; format: in vivo, Glycine max.; conditions: Glycine max, pre-emergence, 336 h; 0.25 lb/acre; read-out: percent preemergent control
How it was run: as §1

sugar beet = experiment: Preemergent control of plant species; format: in vivo, Beta saccharifera; conditions: Beta vulgaris, pre-emergence, 336 h; 0.25 lb/acre; read-out: percent preemergent control
How it was run: as §1

jimsonweed = experiment: Preemergent control of plant species; format: in vivo, Datura stramonium; conditions: Datura stramonium, pre-emergence, 336 h; 0.25 lb/acre; read-out: percent preemergent control
How it was run: as §1

annual morning glory = experiment: Preemergent control of plant species; format: in vivo, Ipomoea spp.; conditions: Ipomoea, pre-emergence, 336 h; 0.25 lb/acre; read-out: percent preemergent control
How it was run: as §1

pigweed = experiment: Preemergent control of plant species; format: in vivo, Amaranthus spp.; conditions: Amaranthus retroflexus, pre-emergence, 336 h; 0.25 lb/acre; read-out: percent preemergent control
How it was run: as §1

velvetleaf = experiment: Preemergent control of plant species; format: in vivo, Abutilon theophrasti; conditions: Abutilon theophrasti, pre-emergence, 336 h; 0.25 lb/acre; read-out: percent preemergent control
How it was run: as §1

corn = experiment: Preemergent control of plant species; format: in vivo, Zea mays; conditions: Zea mays, pre-emergence, 336 h; 0.25 lb/acre; read-out: percent preemergent control
How it was run: as §1

rice [1] = experiment: Preemergent control of plant species; format: in vivo, Oryza sativa; conditions: Oryza sativa, pre-emergence, 336 h; 0.25 lb/acre; read-out: percent preemergent control
How it was run: as §1

sorghum = experiment: Preemergent control of plant species; format: in vivo, Sorghum vulgare; conditions: Sorghum, pre-emergence, 336 h; 0.25 lb/acre; read-out: percent preemergent control
How it was run: as §1

wheat = experiment: Preemergent control of plant species; format: in vivo, Triticum aestivum; conditions: Triticum aestivum, pre-emergence, 336 h; 0.25 lb/acre; read-out: percent preemergent control
How it was run: as §1

barnyardgrass [2] = experiment: Preemergent control of plant species; format: in vivo, Echinochloa crusgalli; conditions: Echinochloa crus-galli, pre-emergence, 336 h; 0.25 lb/acre; read-out: percent preemergent control
How it was run: as §1

crabgrass = experiment: Preemergent control of plant species; format: in vivo, Digitaria spp.; conditions: Digitaria sanguinalis, pre-emergence, 336 h; 0.25 lb/acre; read-out: percent preemergent control
How it was run: as §1

johnson grass = experiment: Preemergent control of plant species; format: in vivo, Sorghum halepense; conditions: Sorghum halepense, pre-emergence, 336 h; 0.25 lb/acre; read-out: percent preemergent control
How it was run: as §1

wild oats = experiment: Preemergent control of plant species; format: in vivo; conditions: Avena fatua, pre-emergence, 336 h; 0.25 lb/acre; read-out: percent preemergent control
How it was run: as §1

yellow foxtail = experiment: Preemergent control of plant species; format: in vivo, Setaria lutescens; conditions: Setaria, pre-emergence, 336 h; 0.25 lb/acre; read-out: percent preemergent control
How it was run: as §1

yellow nutsedge [3] = experiment: Preemergent control of plant species; format: in vivo, Cyperus esculentus; conditions: Cyperus, pre-emergence, 336 h; 0.25 lb/acre; read-out: percent preemergent control
How it was run: as §1

rice [4] = experiment: Control of aquatic plant species (paddy water); format: in vivo, Oryza sativa; conditions: Oryza sativa, 216 h, nine days, read-out: Percent control
How it was run: (§2)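 First, young plants (1-2 inch stage) were set into about 2 inches of soil. Next, pots were flooded to about 1 inch depth. Then acetone concentrate was injected into the water at varying volumes to give the intended concentration. Finally, control was assessed after nine days.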

barnyardgrass [5] = experiment: Control of aquatic plant species (paddy water); format: in vivo, Echinochloa crusgalli; conditions: Echinochloa crus-galli, 216 h, nine days, read-out: Percent control
Method: In testing for such utility, the plant species to be tested were transplanted into 16 oz. containers into about 2 inches of soil when they were in the 1-2 inch stage and then flooded to a depth of about 1 inch. An acetone concentrate of the chemical to be tested was then injected into the paddy water, the volume injected being varied as desired to provide the desired concentration. Percent control was evaluated nine days after application.

sprangletop = experiment: Control of aquatic plant species (paddy water); format: in vivo, Leptochloa filiformis; conditions: Leptochloa filiformis, 216 h, nine days, read-out: Percent control
How it was run: as §2

yellow nutsedge [6] = experiment: Control of aquatic plant species (paddy water); format: in vivo, Cyperus esculentus; conditions: Cyperus, 216 h, nine days, read-out: Percent control
How it was run: as §2

[7] = tested on: nitrification of ammonium nitrogen; experiment: Suppression of nitrification of ammonium nitrogen in soil; conditions: 27° C.
How it was run: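 Soil (20 g) moistened to its 1/3 bar tension value, mixed with test chemical and incubated sealed for two weeks at 27° C. Nitrate extracted with ammonium sulfate solution and measured by nitrate-specific ion electrode; value given as % NH4-N remaining.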

Compound	plant injury at 280.212 g/ha (cotton) [%]	plant injury at 280.212 g/ha (rape) [%]	plant injury at 280.212 g/ha (soybean) [%]	plant injury at 280.212 g/ha (sugar beet) [%]	pest or weed control at 280.212 g/ha (jimsonweed) [%]	pest or weed control at 280.212 g/ha (annual morning glory) [%]	pest or weed control at 280.212 g/ha (pigweed) [%]	pest or weed control at 280.212 g/ha (velvetleaf) [%]	plant injury at 280.212 g/ha (corn) [%]	plant injury at 280.212 g/ha (rice [1]) [%]	plant injury at 280.212 g/ha (sorghum) [%]	plant injury at 280.212 g/ha (wheat) [%]	pest or weed control at 280.212 g/ha (barnyardgrass [2]) [%]	pest or weed control at 280.212 g/ha (crabgrass) [%]	pest or weed control at 280.212 g/ha (johnson grass) [%]	pest or weed control at 280.212 g/ha (wild oats) [%]	pest or weed control at 280.212 g/ha (yellow foxtail) [%]	pest or weed control at 280.212 g/ha (yellow nutsedge [3]) [%]	% NH4-N Remaining After 2 Weeks Incubation ([7]; 1 ppm) [%]	% NH4-N Remaining After 2 Weeks Incubation ([7]; 0.06 ppm) [%]	other results
COC(=O)c1cccc(C)c1NS(=O)(=O)c1nc2nc(C)cc(C)n2n1 [Compound 50]	80	95	95	100	100	80	100	93	99	97	100	100	95	25	95	60	95	99	73		pest or weed control at 125 g/ha (rice [4]; 0.125 Kg/Ha): 97%; pest or weed control at 125 g/ha (barnyardgrass [5]; 0.125 Kg/Ha): 97%; pest or weed control at 125 g/ha (sprangletop; 0.125 Kg/Ha): 97%; pest or weed control at 125 g/ha (yellow nutsedge [6]; 0.125 Kg/Ha): 97%; % NH4-N Remaining After 2 Weeks Incubation ([7]; 0.01 ppm): 0%; % NH4-N Remaining After 2 Weeks Incubation ([7]; 0.1 ppm): 38%; % NH4-N Remaining After 2 Weeks Incubation ([7]; 10 ppm): 92%
Cc1cc(C)n2nc(S(=O)(=O)Nc3c(F)cccc3C(=O)OC(C)C)nc2n1 [Compound 51]	93	95	90	95	95	80	100	95	97	80	97	97	97	95	95	100	97	100	78	33	pest or weed control at 31 g/ha (rice [4]; 0.031 Kg/Ha): 0%; pest or weed control at 1000 g/ha (rice [4]; 1.0 Kg/Ha): 95%; pest or weed control at 31 g/ha (barnyardgrass [5]; 0.031 Kg/Ha): 35%; pest or weed control at 1000 g/ha (barnyardgrass [5]; 1.0 Kg/Ha): 97%; pest or weed control at 31 g/ha (sprangletop; 0.031 Kg/Ha): 0%; pest or weed control at 1000 g/ha (sprangletop; 1.0 Kg/Ha): 70%; pest or weed control at 31 g/ha (yellow nutsedge [6]; 0.031 Kg/Ha): 93%; pest or weed control at 1000 g/ha (yellow nutsedge [6]; 1.0 Kg/Ha): 97%; % NH4-N Remaining After 2 Weeks Incubation ([7]; 0.25 ppm): 58%; % NH4-N Remaining After 2 Weeks Incubation ([7]; 4 ppm): 87%
Cc1nc2nc(S(=O)(=O)Nc3c(Cl)cccc3Cl)nn2c(C)c1C [Compound 111]	20	95	10	90	95	20	50	80	35	65	65	0	15	90	75	0	30	93	69	22	pest or weed control at 4000 g/ha (rice [4]; 4.0 Kg/Ha): 93%; pest or weed control at 4000 g/ha (barnyardgrass [5]; 4.0 Kg/Ha): 99%; pest or weed control at 4000 g/ha (sprangletop; 4.0 Kg/Ha): 80%; pest or weed control at 4000 g/ha (yellow nutsedge [6]; 4.0 Kg/Ha): 99%; % NH4-N Remaining After 2 Weeks Incubation ([7]; 0.25 ppm): 60%; % NH4-N Remaining After 2 Weeks Incubation ([7]; 4 ppm): 92%
